Details of series [1]: method as in PMID 25994066. The conditions noted are these: DPPH method; read-out: Radical Scavenging Activity (EC50); cited from earlier work. In general terms: Loss of DPPH colour is used to gauge radical scavenging.
Series [2] is described as follows: Radical scavenging activity, DPPH method. Type of series: biochemical. The note with it: MeOH, 30 min, r.t., mean ± SD of 3 independent experiments. The source says: Commercial ferulic acid (FA) and all the newly synthesized compounds 1a–e were studied for their radical scavenging activity, following the protocol previously reported. The activity of each compound is expressed as EC50 and is related to its interaction with the free stable radical 2,2-diphenyl-1-picrylhydrazyl (DPPH•).
For the physicochemical and biological studies, analytical grade reagents and solvents were supplied by Sigma-Aldrich (St. Louis, MO, USA), Fluka (Buchs, Switzerland) and Acros (Geel, Belgium). They were used as received without any purification. The antioxidant activity assay was performed in a quartz cell of 1 cm path length with a Perkin-Elmer Lambda 35 UV–Vis spectrophotometer equipped with a temperature programmer PTP1+1 Peltier System (T = 25.0 ± 0.1 °C).
Compounds were evaluated for their radical scavenging activity by the Blois method using DPPH (2,2-diphenyl-1-picrylhydrazyl), a stable free-radical. It absorbs in methanol solution at 517–520 nm and it is a scavenger for other radicals converting itself in the reduced form DPPHH. The assay consists of preparing solutions of increasing concentration of each compound starting from a stock solution (2–3 × 10^−4 M), adding to them 2.5 mL DPPH (0.002% in MeOH, 50–100 µM) and the necessary volume of MeOH to reach the final volume 3.5 mL for each sample. The control sample was made up of DPPH and MeOH. Solutions were protected from light at r.t. for 30 min and then absorbance was measured at 517 nm with a Perkin Elmer Lambda 35 UV–Vis spectrophotometer, using methanolic solution as the blank in the other cell. All the studied compounds have good solubility in MeOH, so their solutions could be prepared. The assay was repeated three times for all compounds and the antioxidant activity, expressed as EC50, was calculated by Equation (1). %AA = ((ADPPH − Asample)/ADPPH) × 100,(1)

For series [3], the target named is T1, Aβ1–42 peptide (Homo sapiens, UniProt P05067). The series can be described thus: Inhibition of self-mediated Aβ1–42 aggregation, Thioflavin T fluorescence assay. On the set-up: Amyloid-β peptide (1–42) was purchased from GeneCust; purchased GeneCust. The conditions noted are these: read-out: Inhibition of Aβ1–42 Aggregation (%) Self-Aβ Aggr. The class given is biochemical. As to the method: (§1) The studied compounds (1a–e) were tested in vitro to evaluate their activity as inhibitors of Aβ1-42 peptide aggregation, through the Thioflavin T (ThT) fluorescence assay. This method is based on the strong ability of the dye ThT to bind β-amyloid fibrils and oligomers through ionic and hydrophobic interactions, while its interaction with β-amyloid monomers is extremely weak. The intercalation of compounds in the β-sheet structure of amyloid protein may prevent fibrils aggregation and ThT binding, and it is evaluated by fluorimetry. The fluorescence emission measurements were performed after overnight incubation of the self-mediated or Cu^2+-induced Aβ fibril aggregates with the studied compounds.
(§2) The inhibition of β-amyloid (Aβ) aggregation was studied through the Th-T fluorescence assay, which was performed using a Varian Cary Eclipse fluorimeter at the following wavelengths: excitation (446 nm) and emission (485 nm). Amyloid-β peptide (1–42) was purchased from GeneCust as lyophilized powder stored at −20 °C.
(§3) The method used is based on thioflavin T (ThT) fluorescence emission, which depends on the interaction of this dye with Aβ fibrils. The assay is performed with the Aβ1–42 peptide sample, which was previously prepared by solubilization of its lyophilized powder in 1,1,1,3,3,3–hexafluoro-2-propanol (HFIP), an organic solvent useful to solubilize and monomerize the β-sheets protein aggregates. After 24 h, the solution was divided into Eppendorf tubes kept in ice, and then, HFIP was left to evaporate overnight (T = 25 °C). The resultant films were stored in the freezer. […] Compounds were dissolved in MeOH (1 mg/mL) and diluted with phosphate buffer to reach a ligand stock solution of 480 μM. Two different types of experiments were prepared in a final volume of 60 μL: control ligand assays (Aβ1–42 aggregation in the absence of inhibitor) and ligand assays (effect of ligand on Aβ1–42 aggregation). For each experiment, a blank sample without Aβ1–42 was used to monitor the effect of the compounds in fluorescence. To study the inhibition of aggregation in the presence of Cu^2+, which is known to promote it, an intermediate stock solution of CuCl2 in phosphate buffer (240 µM) was prepared. Then, it was aliquoted to obtain a final concentration of 40 µM in the samples. All samples were incubated in a water bath for 24 h at 37 °C. Then, 180 µL of ThT (5 µM) in glycine-NaOH buffer (50 mM, pH = 8.5) is added to each solution and 200 µL of it is placed in a 96-well plate (BD Falcon) to be read with the fluorimeter. After 5 min of incubation with ThT, fluorescence was measured at 446 nm (ʎ excitation) and 485 nm (ʎ emission).

Series [4] has as its target T1, Aβ1–42 peptide. Description: Inhibition of Cu^2+-induced Aβ1–42 aggregation, Thioflavin T fluorescence assay. Type of series: biochemical. The arrangement: Amyloid-β peptide (1–42) was purchased from GeneCust; purchased GeneCust. The conditions noted are these: compounds 80 μM, with copper 40 μM; ThT fluorescence; mean of two independent measurements in duplicate; read-out: Inhibition of Aβ1–42 Aggregation (%) Cu-Induced Aβ Aggr. Here is the method: as §1, §2, §3

Series [5] in a line: Cu^2+ complexation, potentiometric / spectrophotometric titration. Type of series: physicochemical. The source says: (§4) The chelating ability of FA and of selected compounds 1a and 1d was studied by using the same experimental techniques (potentiometry, UV–Vis spectrophotometry) and experimental medium used for the titration of the ligand alone (20% w/w DMSO/water).
(§5) Alterations in the deprotonation profiles of the ligand titration curves due to the presence of the metal ions are evident in Figure 2, since the curves for the M/L systems appear well below that of FA for a > −1 (M = Fe) or a > 0 (M = Cu). This evidence supports the formation of metal complexes with the deprotonated (L^−) and mono-protonated (HL) forms of the ligand, whose stability order (Fe > Cu) follows the expected trend. Equilibrium models obtained from the fitting analysis of the potentiometric curves (M = Fe, Cu) and the UV–Vis spectral data (M = Fe, Cu) are reported in Table 2.
(§6) Both compounds 1a and 1d have similar chelating capacities towards iron and copper, which are also analogous to those of FA.
(§7) As concerns the metal chelation studies, potassium hydrogen phthalate (C8H5KO4, p.a.) was acquired from BDH, whereas dimethylsulfoxide (DMSO, dried, p.a.) and potassium chloride (KCl, p.a.) were supplied by Sigma-Aldrich. Aqueous solutions of metal ions were prepared starting from 1000 ppm standards (Titrisol, Sigma-Aldrich), to obtain solutions FeCl3 0.018 M and CuCl2 0.015 M. The metal content of solutions was evaluated by atomic absorption. Iron stock solution was prepared with an excess of acid chloride to avoid hydrolysis and its concentration in HCl was determined by the usual standard-addition method using 0.1M HCl (Titrisol). The 0.1M HCl solution, used in calibration of the glass electrode and in spectrophotometric titrations, was prepared from a Titrisol ampoule. The titrant was prepared from carbonate free commercial concentrate (Titrisol, KOH 0.1 M ampoules). The KOH solution was standardized by titration with a solution of potassium hydrogen phthalate using Gran’s method and it was rejected when the percentage of carbonate was greater than 0.5% of the total amount of base. The potentiometric studies were performed with an automated potentiometric apparatus controlled by PASAT program and containing a Crison micropH 2002 millivoltmeter, a Crison microBu 2031 burette and a Haake thermostatic bath (T = 25.0 ± 0.1 °C). The spectrophotometric titrations were carried out with a Perkin-Elmer Lambda 35 spectrophotometer.
(§8) Both glass and Ag/AgCl reference electrodes were previously conditioned in different DMSO/H2O mixtures of increasing DMSO % concentration and the response of the glass electrode was evaluated by strong acid–strong base (HCl/KOH) calibrations with the determination of the Nernst parameters by Gran’s method. […] The spectrophotometric measurements were carried out in a 250–450 nm wavelength range at pH ca. 2.5–11.8. Under the stated experimental conditions, the pKw value (14.27) was determined and subsequently used in the computations. The stepwise protonation constants of the ligands, Ki = [HiL]/[Hi-1L][H], and the overall metal complex stability constants, β (MmHhLl) = [MmHhLl]/[M]^m[H]^h[L]^l, were calculated by fitting the pH-potentiometric and spectrophotometric data with, respectively, the Hyperquad 2008 [41] and Psequad programs. The metal hydrolysis model was determined under the defined experimental conditions (I = 0.1 M KCl, 20% w/w DMSO/H2O, T = 25.0 ± 0.1 °C) and the following values of stability constants were included in the fitting of experimental data towards the equilibrium models related to the Fe^3+/L and Cu^2+/L systems: log β (FeH-2) = −6.78, log β (FeH-3) = −10.78; log β (Cu2H-2) = −9.94. The species distribution curves were obtained with the Hyss program.

Series [6] can be described thus: Fe^3+ complexation, potentiometric / spectrophotometric titration. Type of series: physicochemical.
Text: as §4, §5, §6, §7, §8

Details of series [7]: method as in doi:10.1039/C7NJ00661F, doi:10.1016/j.tca.2004.06.016, doi:10.1021/je101075q. The conditions noted are these: aqueous medium and/or different ionic strength; cited from earlier work.
Series [8] deals with T1, Aβ1–42 peptide. The conditions noted are these: cited from earlier work.
Where [9] appears, read: compounds 80 μM, without copper, ThT fluorescence, mean of two independent measurements in duplicate.
Where [10] appears, read: T = 25.0 ± 0.1 °C, I = 0.1 M KCl, 20% w/w DMSO/water, pH-potentiometric (FA), UV–Vis (1a, 1d).
Where [11] appears, read: T = 25.0 ± 0.1 °C, I = 0.1 M KCl, 20% w/w DMSO/water, pH-potentiometric data.
[12] abbreviates: pH 7.4, CL/CM = 10, CM = 10^−6 M.

Read-outs that look alike come from different tables or passages of the source.

As usually defined, the EC50 is the midpoint of the concentration-response curve. The inhibition is the drop in the measured response relative to a control, in per cent. A word on the melting point: it is the temperature of the solid-liquid transition.

T1 sequence (P05067 672-713): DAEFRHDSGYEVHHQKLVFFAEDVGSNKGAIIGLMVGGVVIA

On to `O=C1O[C@H]([C@@H](O)CO)C(O)=C1O` [Ascorbic acid], for which, in [1], the 50% effective concentration (EC50) was 25 ± 1 µM.

As to `COc1cccc(CONC(=O)/C=C/c2ccc(O)c(OC)c2)c1` [Compound 1b, (E)-3-(4-hydroxy-3-methoxyphenyl)-N-((3-methoxybenzyl)oxy)acrylamide], the melting point lay within 63 to 65 °C. The same compound showed an EC50 in [2] of 40 ± 2 µM. Moreover, the inhibition at 80 µM on Aβ1–42 peptide [3] (setting [9]) is 52.8%. The inhibition at 80 µM on Aβ1–42 peptide [4] amounted to 69.5%.

`COc1cc(/C=C/C(=O)NOCc2ccccc2C(F)(F)F)ccc1O` [Compound 1c, (E)-3-(4-hydroxy-3-methoxyphenyl)-N-((2-(trifluoromethyl)benzyl)oxy)acrylamide] showed a melting point of 76 to 77 °C. In series [2], the EC50 is 34 ± 1 µM. Besides, on Aβ1–42 peptide [3] (setting [9]), the inhibition at 80 µM was 51%. Besides, at Aβ1–42 peptide [4], the inhibition at 80 µM turned out to be 68.8%.

Regarding `COc1cc(/C=C/C(=O)NOCc2ccc(Cl)cc2Cl)ccc1O` [Compound 1e, (E)-N-((2,4-dichlorobenzyl)oxy)-3-(4-hydroxy-3-methoxyphenyl)acrylamide], the melting point is 164.3 to 166.5 °C. The compound further gave an EC50 in series [2] of 32 ± 3 µM. On Aβ1–42 peptide [3] (setting [9]), the inhibition at 80 µM is 28.3%. For the same compound, the inhibition at 80 µM on Aβ1–42 peptide [4] was found to be 77%.

`COc1cc(/C=C/C(=O)O)ccc1O` [FA, (E)-4-hydroxy-3-methoxy cinnamic acid, reference compound] had an EC50 in [2] of 36 ± 2 µM. In addition, in series [5] (setting [10]), the “log β (CumHhLl), species (1–12)” value is on record as 1.90(8) and the “log β (CumHhLl), species (101)” value is on record as 6.52(8). The “log β (CumHhLl), species (102)” value in series [5] (T = 25.0 ± 0.1 °C, I = 0.1 M KCl, 20% w/w DMSO/water, pH-potentiometric (FA), UV–Vis (1d)) is 11.14(6). In addition, the “log β (CumHhLl), species (111)” value in series [5] (setting [11]) is given as 13.30(4). For the same compound, the “pM (Cu^2+), pM = −log [M]” value in [5] (setting [12]) came out at 6.2. The “log β (FemHhLl), species (1–22)” value in series [6] (T = 25.0 ± 0.1 °C, I = 0.1 M KCl, 20% w/w DMSO/water) is given as 7.81(8). In [6] (setting [10]), the “log β (FemHhLl), species (101)” value is given as 12.15(6) and the “log β (FemHhLl), species (102)” value was 20.31(6). In series [6] (setting [11]), the “log β (FemHhLl), species (103)” value is 26.70(8). For the same compound, the “pM (Fe^3+), pM = −log [M]” value in series [6] (setting [12]) is on record as 17.4. For the same compound, the “free iron in the Fe^3+/L system” value in series [6] (pH ca. 2, species distribution) is “ca. 90%”. Also, in series [7], the “log K1 previously reported” value is recorded as 8.77–8.94 and the “log K2 previously reported” value was 4.46–4.56.

On to `Nc1c2c(nc3ccccc13)CCCC2` [Tacrine, reference compound], for which the “Inhibition of Aβ1–42 Aggregation (%) Self-Aβ Aggr.” value on Aβ1–42 peptide [8] is given as 22.8%. For the same compound, at Aβ1–42 peptide [3], the inhibition at 80 µM was found to be 21.5%.
